The record followed here is patent publication US9481669B2, “Pladienolide pyridine compounds and methods of use” (Eisai R&D Management Co., Ltd., priority 2014, dated 2016).

“Also recorded” adds a separate entry of the source.

What is called AUC(0-inf) is the area under the concentration-time curve extrapolated to infinity. Read a low AUC(0-inf) as less exposure. One may read the AUC(0-t) as exposure summed from dosing to a finite time, without extrapolation to infinity. Read a low AUC(0-t) as low exposure. By half-life is commonly meant the time needed for the level to fall by half in the phase considered. Broadly, the Cmax is the maximum level reached in the sampled fluid or tissue. By Tmax is commonly meant the time from dosing to the highest level. The bioavailability is the share of a dose that reaches the circulation, judged against a reference dose that is usually intravenous. Read a high bioavailability as good availability.

In series [1] the test system is Pre-EIF4A1 and SLC25A19 expression in Nalm-6 SF3B1^K700E xenograft tumors. The experiment in a line: PK/PD testing in Nalm-6 mouse xenograft model. In kind it is in vivo, CB17-SCID mice. The settings on record: single oral dose. How it is done: Pharmacokinetics (PK)/pharmacodynamics (PD) of Compound 2 were also analyzed in the Nalm-6 mouse xenograft model. Nalm-6 SF3B1^K700E isogenic cells (human pre B-cell line, 10×10^6 cells) were subcutaneously implanted into the flank of female CB17-SCID mice. Mice were administered a single oral dose of 10 mg/kg Compound 2 (10% ethanol, 5% TWEEN-80, 85% saline), and the tumors were collected at the indicated times post administration for analysis.
RNA was isolated using RiboPure™ RNA purification kit (Ambion®) and used for qPCR analysis. The RNA was retrotranscribed according to the instructions of the SuperScript® VILO™ cDNA synthesis kit (Invitrogen™), and 0.04 μl of cDNA was used for quantitative PCR (qPCR). qPCR for pre-mRNA EIF4A1 and mature mRNA […] and PK evaluation were performed as reported previously (Eskens, F. A. et al. Phase I pharmacokinetic and pharmacodynamic study of the first-in-class spliceosome inhibitor E7107 in patients with advanced solid tumors. Clin Cancer Res. 19, 6296-6304, doi:10.1158/1078-0432.CCR-13-0485 (2013)). All animal studies were carried out according to the H3 Biomedicine Guide for the Care and Use of Laboratory Animals.
Pharmacokinetics (PK)/pharmacodynamics (PD) of Compound 1 were also analyzed in the Nalm-6 mouse xenograft model. […]

Series [2] concerns Nalm-6 SF3B1^K700E isogenic cells (human pre B-cell line) xenograft. The experiment in a line: Nalm-6 SF3B1^K700E mouse xenograft efficacy model. In kind it is in vivo, CB17-SCID mice. The settings on record: orally dosed daily for 14 days (QD×14 PO). How it is done:
The efficacy of Compound 2 was tested in a mouse xenograft model. Nalm-6 SF3B1^K700E isogenic cells (human pre B-cell line, 10×10^6 cells) were subcutaneously implanted into the flank of female CB17-SCID mice. Mice were treated with Compound 2 (10% ethanol, 5% TWEEN-80, 85% saline) or vehicle control. The animals were orally dosed daily for 14 days (QD×14 PO) at the amounts indicated in FIG. 2 and were monitored until they reached either of the following endpoints: 1) excessive tumor volume measured three times a week (tumor volume calculated by using the ellipsoid formula: (length×width^2)/2); or 2) development of any health problems such as paralysis or excessive body weight loss. All animal studies were carried out according to the H3 Biomedicine Guide for the Care and Use of Laboratory Animals.
The efficacy of Compound 1 was tested in a mouse xenograft model. […] The animals were orally dosed daily for 14 days (QD×14 PO) with 7.5 mg/kg or 10 mg/kg Compound 1 or vehicle and were monitored until they reached either of the following endpoints: 1) excessive tumor volume measured three times a week (tumor volume calculated by using the ellipsoid formula: (length×width^2)/2); or 2) development of any health problems such as paralysis or excessive body weight loss. […]

A short description of series [3]: Mouse pharmacokinetic (PK) study. In kind it is in vivo, CD-1 mice. How it is done:
Compound 2 was dosed at 5 mg/kg IV (intravenous) or 10 mg/kg PO (oral administration) to CD-1 mice. Following administration, blood samples were collected at pre-determined time points from five mice via serial bleeding of the tail vein. Blood was collected at 0.083 (0.167 PO only), 0.5, 1, 2, 4, 6, 8, and 24 hours post administration. The blood samples were centrifuged at 5000 RPM for 5 minutes to collect plasma within 30 minutes of blood collection. After extraction, samples were assayed using LCMS. PK parameters were calculated using non-compartmental analysis in WinNonlin v6.3.
Compound 1 was dosed at 5 mg/kg IV or 12 mg/kg PO to CD-1 mice. Following administration, blood samples were collected at pre-determined time points from five mice via serial bleeding from the tail vein. Blood was collected at 0.083 (0.167 PO only), 0.5, 1, 2, 4, 6, 8, and 24 hours post-dose. The blood samples were centrifuged at 5000 RPM for 5 minutes to collect plasma within 30 minutes of blood collection. After extraction, samples were assayed using LCMS. PK parameters were calculated using non-compartmental analysis in WinNonlin v6.3.
Compound 3 was dosed at 5.964 mg/kg IV or 13.307 mg/kg PO to CD-1 mice. Following administration, blood samples were collected at pre-determined time points from five mice via serial bleeding from the tail vein. Blood was collected at 0.083 (0.167 PO only), 0.5, 1, 2, 4, 6, 8, and 24 hours post-dose. The blood samples were centrifuged at 5000 RPM for 5 minutes to collect plasma within 30 minutes of blood collection. After extraction, samples were assayed using LCMS. PK parameters were calculated using non-compartmental analysis in WinNonlin v6.3.
Compound 4 was dosed at 5 mg/kg IV or 10 mg/kg PO to CD-1 mice. Following administration, blood samples were collected at pre-determined time-points from five mice via serial bleeding from the tail vein. Blood was collected at 0.083 (0.167 PO only), 0.5, 1, 2, 4, 6, 8, and 24 hours post-dose. The blood samples will be centrifuged at 5000 RPM for 5 minutes to collect plasma within 30 minutes of blood collection. After extraction, samples were assayed using LCMS. PK parameters were calculated using non-compartmental analysis in WinNonlin v6.3.

Setting [4] is: mouse, plasma, CD-1 mice, 5 mg/kg IV.
[5] abbreviates: mouse, plasma, CD-1 mice, 10 mg/kg PO.

Take `C/C(=C\C=C\[C@@H](C)c1ccccn1)[C@H]1OC(=O)C[C@H](O)CC[C@@](C)(O)[C@@H](OC(=O)N2CCN(C)CC2)/C=C/[C@@H]1C` [Compound 2, (2S,3 S,6S,7R,10R,E)-7,10-dihydroxy-3,7-dimethyl-12-oxo-2-((R,2E,4E)-6-(pyridin-2-yl)hepta-2,4-dien-2-yl)oxacyclododec-4-en-6-yl 4-methylpiperazine-1-carboxylate]: the “PD responses (fold change in Pre-EIF4A1 and SLC25A19 expression in tumor)” value in series [1] is on record as “showed PD responses at a tolerated dose”. Besides, in series [2], the “efficacy / tumor growth in xenograft mouse model” value is “efficacious when administered via the oral route and reduced tumor growth”. This compound also registered an AUC0-inf/D in series [3] (CD-1 mice, 5 mg/kg IV) of 632.71 ng · h/mL/D. In addition, in series [3] (CD-1 mice, 10 mg/kg PO), the AUC0-inf/D was 254.49 ng · h/mL/D and the Cmax/D was 84.07 ng/mL/D. For the same compound, in series [3] (mouse model, IV and PO dosing), the “oral bioavailability and pharmacokinetic properties (in words)” value is “shows oral bioavailability and favorable pharmacokinetic properties; also recorded: possess oral bioavailability and favorable pharmacokinetic properties”. In series [3] (setting [4]), this compound gave a total exposure AUC(0-inf) of 3160 ng·h/mL, an AUC(0-t) of 3160 ng·h/mL and a half-life of 3.88 h. For the same compound, the clearance in series [3] (mouse, plasma, CD-1 mice, 5 mg/kg IV, read-out: CL (converted)) is 26.3 mL/min/kg. Also, in series [3] (mouse, plasma, CD-1 mice, 5 mg/kg IV, read-out: Vss), the Vd turned out to be 2.37 L/kg. In addition, in series [3] (setting [5]), the total exposure AUC(0-inf) worked out at 2540 ng·h/mL, the exposure AUC(0-t) was 2510 ng·h/mL, the peak concentration (Cmax) turned out to be 841 ng/mL and the time of peak concentration (Tmax) stood at 1 h. Moreover, in series [3] (setting [5]), the bioavailability was found to be 40.2% and the half-life is 4.04 h.
